Data: PubChem BioAssay AID1963861 (Molecular Pharmacology Branch, DTP, NCI, 2024)

Test system: 885724-159-R-J1-PDC KRAS PDC multicell spheroid viability
Experiment: Anticancer human tumor 885724-159-R-J1-PDC patient-derived pancreatic adenocarcinoma cell line growth inhibition [KRAS2]
Conditions: for IC50: curve of first compound; for viability, T/C: stronger effect = lower value
Outline: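 KRAS-mutant tumor cells were grown as spheroids with HUVEC endothelial cells and human MSCs as stroma. Targeted agents were tested alone and with KRAS pathway inhibitors. Doses started at or near clinical Cmax, or 10 microM, descending half-log.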

[1] = second compound 0.0316 µM, first compound 0.000316 µM
[2] = second compound 0.0316 µM, first compound 0.001 µM
[3] = second compound 0.0316 µM, first compound 0.00316 µM
[4] = second compound 0.0316 µM, first compound 0.01 µM
[5] = second compound 0.0316 µM, first compound 0.0316 µM
[6] = second compound 0.1 µM, first compound 0.000316 µM
[7] = second compound 0.1 µM, first compound 0.001 µM
[8] = second compound 0.1 µM, first compound 0.00316 µM
[9] = second compound 0.1 µM, first compound 0.01 µM
[10] = second compound 0.1 µM, first compound 0.0316 µM
[11] = second compound 0.316 µM, first compound 0.000316 µM
[12] = second compound 0.316 µM, first compound 0.001 µM
[13] = second compound 0.316 µM, first compound 0.00316 µM
[14] = second compound 0.316 µM, first compound 0.01 µM
[15] = second compound 0.316 µM, first compound 0.0316 µM
[16] = second compound 1 µM, first compound 0.000316 µM
[17] = second compound 1 µM, first compound 0.001 µM
[18] = second compound 1 µM, first compound 0.00316 µM
[19] = second compound 1 µM, first compound 0.01 µM
[20] = second compound 1 µM, first compound 0.0316 µM
[21] = second compound 3.16 µM, first compound 0.000316 µM
[22] = second compound 3.16 µM, first compound 0.001 µM
[23] = second compound 3.16 µM, first compound 0.00316 µM
[24] = second compound 3.16 µM, first compound 0.01 µM
[25] = second compound 3.16 µM, first compound 0.0316 µM
[26] = second compound 0.0316 µM, first compound 0.1 µM
[27] = second compound 0.1 µM, first compound 0.1 µM
[28] = second compound 0.316 µM, first compound 0.1 µM
[29] = second compound 1 µM, first compound 0.1 µM
[30] = second compound 3.16 µM, first compound 0.1 µM
[31] = second compound 0.0316 µM, first compound 0.316 µM
[32] = second compound 0.0316 µM, first compound 1 µM
[33] = second compound 0.0316 µM, first compound 3.16 µM
[34] = second compound 0.0316 µM, first compound 10 µM
[35] = second compound 0.1 µM, first compound 0.316 µM
[36] = second compound 0.1 µM, first compound 1 µM
[37] = second compound 0.1 µM, first compound 3.16 µM
[38] = second compound 0.1 µM, first compound 10 µM
[39] = second compound 0.316 µM, first compound 0.316 µM
[40] = second compound 0.316 µM, first compound 1 µM
[41] = second compound 0.316 µM, first compound 3.16 µM
[42] = second compound 0.316 µM, first compound 10 µM
[43] = second compound 1 µM, first compound 0.316 µM
[44] = second compound 1 µM, first compound 1 µM
[45] = second compound 1 µM, first compound 3.16 µM
[46] = second compound 1 µM, first compound 10 µM
[47] = second compound 3.16 µM, first compound 0.316 µM
[48] = second compound 3.16 µM, first compound 1 µM
[49] = second compound 3.16 µM, first compound 3.16 µM
[50] = second compound 3.16 µM, first compound 10 µM
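Note: spheroids exposed to agents for 7 days before readout.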

## CC(=O)Nc1cccc(-n2c(=O)n(C3CC3)c(=O)c3c(Nc4ccc(I)cc4F)n(C)c(=O)c(C)c32)c1 + C=CC(=O)N1CCN(c2nc(OCC3CCCN3C)nc3c2CCN(c2cccc4cccc(C)c24)C3)CC1CC#N
Second compound 0.0316 µM
  IC50: 1.33 nM
Second compound 0.1 µM
  IC50: 1.48 nM
Second compound 0.316 µM
  IC50: 0.933 nM
Second compound 1 µM
  IC50: 0.625 nM
Second compound 3.16 µM
  IC50: < 0.1 nM
Second compound 0.0316 µM, first compound 0.0001 µM
  viability, T/C: 107%
[1]
  viability, T/C: 78.7%
[2]
  viability, T/C: 51.3%
[3]
  viability, T/C: 38.5%
[4]
  viability, T/C: 31%
[5]
  viability, T/C: 20.8%
Second compound 0.1 µM, first compound 0.0001 µM
  viability, T/C: 92.3%
[6]
  viability, T/C: 84%
[7]
  viability, T/C: 54.2%
[8]
  viability, T/C: 37.3%
[9]
  viability, T/C: 28.9%
[10]
  viability, T/C: 20.4%
Second compound 0.316 µM, first compound 0.0001 µM
  viability, T/C: 92.6%
[11]
  viability, T/C: 74.8%
[12]
  viability, T/C: 45.1%
[13]
  viability, T/C: 34.8%
[14]
  viability, T/C: 28.7%
[15]
  viability, T/C: 20.4%
Second compound 1 µM, first compound 0.0001 µM
  viability, T/C: 85.1%
[16]
  viability, T/C: 64.3%
[17]
  viability, T/C: 39.5%
[18]
  viability, T/C: 27.7%
[19]
  viability, T/C: 21.8%
[20]
  viability, T/C: 18.6%
Second compound 3.16 µM, first compound 0.0001 µM
  viability, T/C: 45.4%
[21]
  viability, T/C: 37.8%
[22]
  viability, T/C: 18.8%
[23]
  viability, T/C: 18.8%
[24]
  viability, T/C: 5.46%
[25]
  viability, T/C: 8.49%

## CC(C)n1nc(-c2ccc3oc(N)nc3c2)c2c(N)ncnc21 + C=CC(=O)N1CCN(c2nc(OCC3CCCN3C)nc3c2CCN(c2cccc4cccc(C)c24)C3)CC1CC#N
Second compound 0.0316 µM
  IC50: 41.5 nM
Second compound 0.1 µM
  IC50: 24.2 nM
Second compound 0.316 µM
  IC50: 19.1 nM
Second compound 1 µM
  IC50: 8.71 nM
Second compound 3.16 µM
  IC50: 0.86 nM
[1]
  viability, T/C: 88.8%
[2]
  viability, T/C: 77.3%
[3]
  viability, T/C: 67.8%
[4]
  viability, T/C: 60.6%
[5]
  viability, T/C: 49.9%
[26]
  viability, T/C: 45.9%
[6]
  viability, T/C: 88.1%
[7]
  viability, T/C: 80.4%
[8]
  viability, T/C: 69.4%
[9]
  viability, T/C: 61.7%
[10]
  viability, T/C: 44.2%
[27]
  viability, T/C: 41.2%
[11]
  viability, T/C: 82.1%
[12]
  viability, T/C: 73.8%
[13]
  viability, T/C: 61.4%
[14]
  viability, T/C: 55.6%
[15]
  viability, T/C: 45.1%
[28]
  viability, T/C: 41.8%
[16]
  viability, T/C: 81.9%
[17]
  viability, T/C: 85.5%
[18]
  viability, T/C: 63.8%
[19]
  viability, T/C: 50.2%
[20]
  viability, T/C: 44.1%
[29]
  viability, T/C: 41.1%
[21]
  viability, T/C: 68.3%
[22]
  viability, T/C: 43.1%
[23]
  viability, T/C: 42.9%
[24]
  viability, T/C: 15.3%
[25]
  viability, T/C: 24%
[30]
  viability, T/C: 15.7%

## COc1cc(Nc2ncc3c(n2)-c2ccc(Cl)cc2C(c2c(F)cccc2OC)=NC3)ccc1C(=O)O + C=CC(=O)N1CCN(c2nc(OCC3CCCN3C)nc3c2CCN(c2cccc4cccc(C)c24)C3)CC1CC#N
Second compound 0.0316 µM
  IC50: > 10000 nM
Second compound 0.1 µM
  IC50: > 10000 nM
Second compound 0.316 µM
  IC50: > 10000 nM
Second compound 1 µM
  IC50: > 10000 nM
Second compound 3.16 µM
  IC50: < 31.6 nM
[5]
  viability, T/C: 103%
[26]
  viability, T/C: 92.4%
[31]
  viability, T/C: 87.9%
[32]
  viability, T/C: 92.4%
[33]
  viability, T/C: 93.1%
[34]
  viability, T/C: 105%
[10]
  viability, T/C: 100%
[27]
  viability, T/C: 88.8%
[35]
  viability, T/C: 88.9%
[36]
  viability, T/C: 90.4%
[37]
  viability, T/C: 99.4%
[38]
  viability, T/C: 100%
[15]
  viability, T/C: 89.2%
[28]
  viability, T/C: 84%
[39]
  viability, T/C: 83.6%
[40]
  viability, T/C: 84.2%
[41]
  viability, T/C: 76.6%
[42]
  viability, T/C: 89%
[20]
  viability, T/C: 80%
[29]
  viability, T/C: 76.9%
[43]
  viability, T/C: 77.8%
[44]
  viability, T/C: 75.1%
[45]
  viability, T/C: 75.7%
[46]
  viability, T/C: 78.2%
[25]
  viability, T/C: 46.9%
[30]
  viability, T/C: 46.3%
[47]
  viability, T/C: 42.3%
[48]
  viability, T/C: 54.5%
[49]
  viability, T/C: 60%
[50]
  viability, T/C: 44.6%

## COc1cc2nccc(Oc3ccc(NC(=O)C4(C(=O)Nc5ccc(F)cc5)CC4)cc3)c2cc1OC + C=CC(=O)N1CCN(c2nc(OCC3CCCN3C)nc3c2CCN(c2cccc4cccc(C)c24)C3)CC1CC#N
Second compound 0.0316 µM
  IC50: > 10000 nM
Second compound 0.1 µM
  IC50: > 10000 nM
Second compound 0.316 µM
  IC50: > 10000 nM
Second compound 1 µM
  IC50: > 10000 nM
Second compound 3.16 µM
  IC50: 430 nM
[5]
  viability, T/C: 109%
[26]
  viability, T/C: 114%
[31]
  viability, T/C: 113%
[32]
  viability, T/C: 99.5%
[33]
  viability, T/C: 70.4%
[34]
  viability, T/C: 69.9%
[10]
  viability, T/C: 111%
[27]
  viability, T/C: 108%
[35]
  viability, T/C: 102%
[36]
  viability, T/C: 111%
[37]
  viability, T/C: 72.2%
[38]
  viability, T/C: 73%
[15]
  viability, T/C: 102%
[28]
  viability, T/C: 111%
[39]
  viability, T/C: 106%
[40]
  viability, T/C: 104%
[41]
  viability, T/C: 79.7%
[42]
  viability, T/C: 62.7%
[20]
  viability, T/C: 111%
[29]
  viability, T/C: 108%
[43]
  viability, T/C: 111%
[44]
  viability, T/C: 102%
[45]
  viability, T/C: 66.6%
[46]
  viability, T/C: 59.6%
[25]
  viability, T/C: 80.1%
[30]
  viability, T/C: 73.7%
[47]
  viability, T/C: 55%
[48]
  viability, T/C: 33.7%
[49]
  viability, T/C: 12.4%
[50]
  viability, T/C: 0.35%
